Patent US11413278B2, “Compounds and methods for promoting stress resistance” (priority 2015, dated 2022)
Read-outs that look alike come from different tables or passages of the source.

Experiments:
NRF2 [1] = test: in vitro; format: cell-based, human; conditions: for NRF2-dependency for H2O2-resistance, at 10 uM - with H2O2, 1st experiment: experiment 1 (1st); for NRF2-dependency for H2O2-resistance, at 10 uM - with H2O2, 2nd experiment: experiment 2 (2nd); for NRF2-dependency for H2O2-resistance, 1st experiment / NRF2-dependency for H2O2-resistance, 2nd experiment: with H2O2, NRF2 knockdown in WI-38 cells, YES = resistance reduced by at least 50%, partial = 25% to 50%; for Assay 17: NRF2-dependency for H2O2-resistance: YES/NO; for NRF2-dependency of H2O2-resistance (NRF2 siRNA knockdown): at least 2 of 3 independent experiments
LC3A/B puncta = test: Autophagy induction analysis (LC3A/B puncta immuno-staining); format: cell-based, human
Summary of the method: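 WI-38 cells were treated with compounds for 24 hrs, then immunostained for LC3A/B (overnight, 4° C) with DAPI counterstain and imaged by high-content microscopy. Experiment 1 used total puncta intensity. Experiment 2 used LAMP2-colocalized (lysosomal) puncta. Intensity was normalized to nuclei count.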

C. elegans = C. elegans lifespan assays (liquid and plate); format: in vivo, Caenorhabditis elegans; conditions: for ILS at 60 µM / ILS at 66 µM: Caenorhabditis elegans; for O = Life span- extending scores in worms: score scale 0 to 2, 4 to 6 independent trials; for M = Lifespan-extending scores in worms: summary score
NRF2 [2] = test: qPCR analysis of NRF2-regulated genes; format: cell-based, human; conditions: for fold induction at 10 µM: Homo sapiens
Summary of the method: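 WI-38 cells treated with compound at 10 μM for 24 hrs, then processed by Cells-to-Ct for RNA isolation, RT and qPCR of NRF2-regulated genes (HMOX1, NQO1, GCLC, GSTM1). Expression normalized to B2M, PPIA and GAPDH; siRNA knockdown of FOXO3 or NRF2 (10 nM) preceded treatment in some runs.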

[3] = in liquid, wild type, with FuDR, 1.0 × 10^9 bacteria/ml, read-out: relative change of mean lifespan vs control, Trial 1
[4] = in liquid, wild type, with FuDR, 2.5 × 10^9 bacteria/ml, read-out: relative change of mean lifespan vs control, Trial 2
[5] = on plate, CF512 temperature-sensitive sterile animals, without FuDR, 2.0 × 10^10 bacteria/ml, read-out: relative change of mean lifespan vs control, Trial 3
[6] = Assay 2(z), 1.0 × 10^9 bacteria/ml, wild type + FuDR (2012 July), read-out: Lifespan assay in liquid
[7] = Assay 3(aa), 2.5 × 10^9 bacteria/ml, wild type + FuDR, read-out: Lifespan assay in liquid
[8] = Assay 4(ab), 2.0 × 10^10 bacteria/ml, CF512 worms, no FuDR, read-out: Lifespan assay on plates
[9] = 24 h, Assay 12(o), at 10 uM, qPCR, read-out: Induction of NRF2-regulated genes: GCLC normalized fold-change
[10] = rounded fold change, WI-38 cells, 10 μM, 24 hrs, read-out: Summary of effects on NRF2-regulated genes: GCLC
[11] = 10 μM, 24 hrs, WI-38 cells, qPCR, normalized to B2M, n = 4, read-out: GCLC expression, normalized fold change (NRF2-regulated gene)
[12] = WI-38 cells, 10 μM, 24 hrs, n=4, qPCR normalized by B2M, read-out: GCLC Normalized fold change
[13] = WI-38 cells, 10 μM, 24 hrs, n=4, qPCR normalized by B2M, read-out: GSTM1 Normalized fold change
[14] = WI-38 cells, 10 μM, 24 hrs, n=4, qPCR normalized by B2M, read-out: HMOX1 Normalized fold change
[15] = WI-38 cells, 10 μM, 24 hrs, n=4, qPCR normalized by B2M, read-out: NQO1 Normalized fold change

| Structure (SMILES) | NRF2-dependency for H2O2-resistance, at 10 uM - with H2O2, 1st experiment (NRF2 [1]; 10 uM) | NRF2-dependency for H2O2-resistance, at 10 uM - with H2O2, 2nd experiment (NRF2 [1]; 10 uM) | NRF2-dependency for H2O2-resistance, 1st experiment (NRF2 [1]; 10 uM) | NRF2-dependency for H2O2-resistance, 2nd experiment (NRF2 [1]; 10 uM) | Assay 17: NRF2-dependency for H2O2-resistance (NRF2 [1]; 10 uM) | NRF2-dependency of H2O2-resistance (NRF2 siRNA knockdown) (NRF2 [1]) | J = NRF2-dependency for H2O2-resistance (NRF2 [1]; score) | J = NRF2-dependency for H2O2-resistance (NRF2 [1]; summary score) | H = Potential Autophagy Induction (LC3A/B puncta; score) | H = Potential Autophagy Induction (LC3A/B puncta; summary score) | ILS at 60 µM (C. elegans; [3]) [%] | ILS at 60 µM (C. elegans; [4]) [%] | ILS at 60 µM (C. elegans; [5]) [%] | ILS at 66 µM (C. elegans; [6]) [%] | ILS at 66 µM (C. elegans; [7]) [%] | ILS at 66 µM (C. elegans; [8]) [%] | O = Life span- extending scores in worms (C. elegans) | M = Lifespan-extending scores in worms (C. elegans) | F = Potential NRF2 Activation (NRF2 [2]; 2-point score) | fold induction at 10 µM (NRF2 [2]; [9]) | further results |
| --- | --- | --- | --- | --- | --- | --- | --- | --- | --- | --- | --- | --- | --- | --- | --- | --- | --- | --- | --- | --- | --- |
| CC(C)(C)c1ccc(OCC(=O)Nc2ccc3c4c(cccc24)C(=O)NC3=O)cc1 [O22] | 1st, partial; | 2nd, partial. | partial; | partial. | YES | significantly attenuate | 1 | 1 | 0 | 0 | -24.5 | -2.3 | -52.8 | -24.5 | -2.3 | -52.8 | 0 | 0 | 0 | 0.66 | fold induction at 10 µM (NRF2 [2]; [10]): 0.66; fold induction at 10 µM (NRF2 [2]; [11]): 0.66; fold induction at 10 µM (NRF2 [2]; [12]): 0.659; fold induction at 10 µM (NRF2 [2]; [13]): 0.877; fold induction at 10 µM (NRF2 [2]; [14]): 0.765; fold induction at 10 µM (NRF2 [2]; [15]): 0.929; F = Potential NRF2 Activation (NRF2 [2]; summary score): 0 |
| O=C(NCc1cccnc1)/C(=C\c1cccc(Oc2ccccc2)c1)S(=O)(=O)c1ccccc1 [Gr-7A] | 1st, YES; | 2nd, YES. | YES; | YES. | YES | significantly attenuate | 1 | 1 | 0 | 0 | 40.6 | 16.2 | 13.9 | 40.6 | 16.2 | 13.9 | 2 (2 for observed in more than 2 trials) | 2 (2 for observed in more than 2 trials) | 0 | 0.6 | Survival of NRF2 siRNA-transfected cells in the absence of H2O2 (NRF2 [1]): could reduce the survival; viability of non-stressed cells, reduced by (NRF2 [1]; human, 24 h, 10 uM): by 84%); ILS at 60 µM (C. elegans; on plate, CF512 temperature-sensitive sterile animals, without FuDR, 1.0 × 10^11 bacteria/ml, read-out: relative change of mean lifespan vs control, Trial 4): 2.7%; ILS at 66 µM (C. elegans; Assay 5(ac), 1.0 × 10^11 bacteria/ml, CF512 worms, no FuDR, read-out: Lifespan assay on plates): 2.7%; Extension of C. elegans' lifespan (qualitative) (C. elegans; in at least 3 to 4 trials, group range ~10% to ~50%): could extend animal's lifespan; fold induction at 10 µM (NRF2 [2]; 24 h, Assay 12(o), at 10 uM, qPCR, read-out: Induction of NRF2-regulated genes: HMOX1 normalized fold-change): 15.2; fold induction at 10 µM (NRF2 [2]; 24 h, Assay 12(o), at 10 uM, qPCR, read-out: Induction of NRF2-regulated genes: NQO1 normalized fold-change): 0.78; fold induction at 10 µM (NRF2 [2]; rounded fold change, WI-38 cells, 10 μM, 24 hrs (RP11 for Gr-1D, RP29 for Gr-4D), read-out: Summary of effects on NRF2-regulated genes: HMOX1): 15.2; fold induction at 10 µM (NRF2 [2]; rounded fold change, WI-38 cells, 10 μM, 24 hrs (RP29 for Gr-4D), read-out: Summary of effects on NRF2-regulated genes: NQO1): 0.78; fold induction at 10 µM (NRF2 [2]; [10]): 0.6; fold induction at 10 µM (NRF2 [2]; [11]): 0.6; fold induction at 10 µM (NRF2 [2]; 10 μM, 24 hrs, WI-38 cells, qPCR, normalized to B2M, n = 4, read-out: HMOX1 expression, normalized fold change (NRF2-regulated gene)): 15.2; fold induction at 10 µM (NRF2 [2]; 10 μM, 24 hrs, WI-38 cells, qPCR, normalized to B2M, n = 4, read-out: NQO1 expression, normalized fold change (NRF2-regulated gene)): 0.78; fold induction at 10 µM (NRF2 [2]; [12]): 0.602; fold induction at 10 µM (NRF2 [2]; [13]): 1.09; fold induction at 10 µM (NRF2 [2]; [14]): 15.2; fold induction at 10 µM (NRF2 [2]; [15]): 0.779; F = Potential NRF2 Activation (NRF2 [2]; summary score): 0 |
